Data from article PMC6692071 (Journal of medicinal chemistry, 2018).
“Also recorded” adds a separate entry of the source.

How the values were obtained:
human δ opioid receptor [1] = target: T1, human δ opioid receptor (Homo sapiens, UniProt P41143); conditions: mean ± SEM; cited from earlier work
human δ opioid receptor [2] = target: T1, human δ opioid receptor; assay: biochemical
[3] = rat PK studies
human κ opioid receptor = human κ opioid receptor (Homo sapiens, UniProt P41145); conditions: mean ± SEM; cited from earlier work
Chain of human κ opioid receptor (P41145 whole entry): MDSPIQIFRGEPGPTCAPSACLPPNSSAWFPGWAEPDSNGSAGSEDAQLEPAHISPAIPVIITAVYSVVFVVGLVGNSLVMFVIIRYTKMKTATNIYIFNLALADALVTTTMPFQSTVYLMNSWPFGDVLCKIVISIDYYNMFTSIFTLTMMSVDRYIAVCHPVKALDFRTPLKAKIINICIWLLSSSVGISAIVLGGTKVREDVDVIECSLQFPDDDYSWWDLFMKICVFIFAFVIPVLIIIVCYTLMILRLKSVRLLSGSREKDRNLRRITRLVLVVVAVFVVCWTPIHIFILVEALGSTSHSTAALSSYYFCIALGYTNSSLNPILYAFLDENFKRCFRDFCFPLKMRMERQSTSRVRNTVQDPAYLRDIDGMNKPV

T1 sequence (P41143 whole entry): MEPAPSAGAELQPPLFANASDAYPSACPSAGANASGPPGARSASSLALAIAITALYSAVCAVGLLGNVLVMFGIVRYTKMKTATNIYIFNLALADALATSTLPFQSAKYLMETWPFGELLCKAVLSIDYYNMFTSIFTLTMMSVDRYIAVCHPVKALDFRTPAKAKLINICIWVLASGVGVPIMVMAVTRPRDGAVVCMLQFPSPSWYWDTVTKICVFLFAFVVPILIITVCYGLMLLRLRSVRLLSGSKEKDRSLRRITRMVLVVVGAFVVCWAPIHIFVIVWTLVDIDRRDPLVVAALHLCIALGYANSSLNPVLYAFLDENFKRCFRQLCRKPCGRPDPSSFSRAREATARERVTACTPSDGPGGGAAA

For `CC1CCN(C[C@@H](NC(=O)[C@H]2Cc3ccc(O)cc3CN2)C(C)C)CC1` [4-MePDTic (43)], the “Ke δ, DPDPE” value (human δ opioid receptor [1]) is given as >3000 nM.
In the case of `CC(C)[C@@H](CC1CCCCC1)NC(=O)[C@H]1Cc2ccc(O)cc2CN1` [Compound 1], the “Ke δ, DPDPE” value (human δ opioid receptor [1]) is given as 640 ± 170 nM.
For `CC(C)[C@@H](CC1CCCCC1)NC(=O)[C@@H]1Cc2ccc(O)cc2CN1` [Compound 3, (3S)-N-[(1R)-1-(Cyclohexylmethyl)-2-methylpropyl]-7-hy-droxy-1,2,3,4-tetrahydroisoquinoline-3-carboxamide], the Kb (human δ opioid receptor [2]) was > 3 µM.
For `CC(C)[C@H](CC1CCCCC1)NC(=O)[C@H]1Cc2ccc(O)cc2CN1` [Compound 4, (3R)-N-[(1S)-1-(Cyclohexylmethyl)-2-methylpropyl]-7-hydroxy-1,2,3,4-tetrahydroisoquinoline-3-carboxamide], the Kb (human δ opioid receptor [2]) was > 3 µM.
For `CC(C)[C@H](CC1CCCCC1)NC(=O)[C@@H]1Cc2ccc(O)cc2CN1` [Compound 5, (3S)-N-[(1S)-1-(Cyclohexylmethyl)-2-methylpropyl]-7-hydroxy-1,2,3,4-tetrahydroisoquinoline-3-carboxamide], the Kb (human δ opioid receptor [2]) was > 3 µM.
With `CC(C)[C@@H](CC1CCCCC1)NC(=O)[C@H]1Cc2ccc(C(N)=O)cc2CN1` [Compound 9, (3R)-N^3-[(1R)-1-(Cyclohexylmethyl)-2-methylpropyl]-1,2,3,4-tetrahydroisoquinoline-3,7-dicarboxamide] the brain penetration [3] was “brain penetration”.
With `CC(C)[C@@H](CC1CCCC1)NC(=O)[C@H]1Cc2ccc(O)cc2CN1` [Compound 13, (3R)-N-[(1R)-1-(Cyclopentylmethyl)-2-methylpropyl]-7-hydroxy-1,2,3,4-tetrahydroisoquinoline-3-carboxamide] the brain penetration [3] was “brain penetration; also recorded: crossed the blood–brain barrier; also recorded: penetrate the brain”.
In the case of `CC(C)[C@@H](CN1CCCCC1)NC(=O)[C@H]1Cc2ccc(O)cc2CN1` [Compound 42, (3R)-7-hydroxy-N-[(1S)-2-methyl-1-(piperidin-1-ylmethyl)propyl]-1,2,3,4-tetrahydroisoquinoline-3-carboxamide], the “Ke δ, DPDPE” value (human δ opioid receptor [1]) is given as >3000 nM.
For `CC(C)[C@@H](CN1CC[C@@](C)(c2cccc(O)c2)[C@@H](C)C1)NC(=O)[C@H]1Cc2ccc(O)cc2CN1` [JDTic, (3R)-1,2,3,4-tetrahydro-7-hydroxy-N-[(1S)-1-[[(3R,4R)-4-(3-hydroxy-phenyl)-3,4-dimethyl-1-piperidinyl]methyl]-2-methylpropyl]-3-iso-quinolinecarboxamide], the “Ke κ, U69,593” value (human κ opioid receptor) is listed as 0.02 ± 0.01 nM.
